Experimental data taken from patent publication US11155539B2, “4-pyridinylmethyl-morpholine derivatives and the use thereof as medicament” (Boehringer Ingelheim International GmbH, priority 2018, dated 2021).

Assays:
[1] = target: T1, NMDA NR1/NR2B receptor (Homo sapiens, UniProt Q13224); assay: In vitro NMDA NR1/NR2B cell assay (FLIPR, intracellular calcium induced by glycine/glutamate); assay type: cell-based; conditions: see Table 2
T1 construct: host or cells: HEK293, tetracycline-inducible expression
T1 sequence (Q13224 27-1484, other chains not shown): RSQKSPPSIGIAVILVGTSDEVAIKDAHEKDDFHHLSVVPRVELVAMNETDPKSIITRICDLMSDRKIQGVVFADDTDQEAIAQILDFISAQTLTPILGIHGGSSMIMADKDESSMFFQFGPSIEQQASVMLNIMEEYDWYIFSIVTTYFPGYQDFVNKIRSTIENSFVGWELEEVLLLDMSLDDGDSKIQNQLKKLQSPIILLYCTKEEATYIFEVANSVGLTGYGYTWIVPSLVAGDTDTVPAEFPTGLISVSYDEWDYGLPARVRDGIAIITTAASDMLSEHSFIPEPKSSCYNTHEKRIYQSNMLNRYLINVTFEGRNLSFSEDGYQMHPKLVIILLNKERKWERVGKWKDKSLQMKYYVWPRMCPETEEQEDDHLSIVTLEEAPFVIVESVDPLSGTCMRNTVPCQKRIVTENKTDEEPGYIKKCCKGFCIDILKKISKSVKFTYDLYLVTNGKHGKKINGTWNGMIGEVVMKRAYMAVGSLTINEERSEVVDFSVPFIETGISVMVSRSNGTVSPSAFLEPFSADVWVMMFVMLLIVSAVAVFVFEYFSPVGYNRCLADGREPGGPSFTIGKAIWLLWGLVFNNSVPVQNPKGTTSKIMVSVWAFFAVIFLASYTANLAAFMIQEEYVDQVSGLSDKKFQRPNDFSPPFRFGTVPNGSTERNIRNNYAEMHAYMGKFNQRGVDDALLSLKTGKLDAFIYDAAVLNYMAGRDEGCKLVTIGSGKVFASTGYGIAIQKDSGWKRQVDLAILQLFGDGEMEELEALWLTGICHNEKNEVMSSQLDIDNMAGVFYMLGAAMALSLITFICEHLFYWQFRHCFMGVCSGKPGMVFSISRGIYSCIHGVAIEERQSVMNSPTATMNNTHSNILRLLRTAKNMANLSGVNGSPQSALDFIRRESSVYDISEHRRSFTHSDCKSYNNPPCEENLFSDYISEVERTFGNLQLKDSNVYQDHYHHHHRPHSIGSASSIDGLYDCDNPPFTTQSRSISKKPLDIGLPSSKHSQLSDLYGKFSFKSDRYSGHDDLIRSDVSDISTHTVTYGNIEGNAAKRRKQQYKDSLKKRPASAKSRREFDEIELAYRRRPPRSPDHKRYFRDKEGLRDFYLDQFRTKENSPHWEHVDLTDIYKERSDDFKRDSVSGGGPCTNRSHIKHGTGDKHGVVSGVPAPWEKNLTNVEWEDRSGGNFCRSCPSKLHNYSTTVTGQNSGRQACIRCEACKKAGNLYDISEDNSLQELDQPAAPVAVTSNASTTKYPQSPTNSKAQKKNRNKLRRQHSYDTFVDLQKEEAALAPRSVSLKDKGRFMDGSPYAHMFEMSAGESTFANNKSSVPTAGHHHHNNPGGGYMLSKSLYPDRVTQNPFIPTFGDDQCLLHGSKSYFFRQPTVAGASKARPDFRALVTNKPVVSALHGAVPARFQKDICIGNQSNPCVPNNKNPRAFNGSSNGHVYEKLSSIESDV
Method: A human HEK293 cell line with tetracyclin-inducible expression of NMDA NR1/NR2B receptor was used as a test system for compound efficacy and potency. The cell line was purchased from ChanTest, Catalog #CT6121. Compound activity was determined by measuring the effect of compounds on intracellular calcium concentration induced by glycine/glutamate agonism in a FLIPRtetra system (Molecular Devices).
The cells were obtained as frozen cells in cryo-vials and stored until use at −150° C. Cells were grown in culture medium (DMEM/F12, 10% FBS, 5 μg/mL Blasticidin, 150 μg/mL Zeozin, 500 μg/mL Geneticin). […] For sub-culturing the cells were detached from flasks by Versene. For the assay, cells were detached, washed twice with induction medium (DMEM/F12 without glutamine, 10% FBS, 2 μg/mL Tetracycline, 2 mM Ketamine) and seeded to 384 well pure coat amine plates (Becton Dickinson, 50000 cells per well in 50 μl) 48 h prior to assay in induction medium.
The test compounds were dissolved in 100% DMSO at a concentration of 10 mM and in a first step diluted in DMSO to a concentration of 5 mM, followed by serial dilution steps in 100% DMSO. Dilution factor and number of dilution steps may vary according to needs. Typically 8 different concentrations by 1:5 dilutions were prepared in duplicate, further intermediate dilutions (1:37.5) of the substances were carried out with aqueous assay buffer (137 mM NaCl, 4 mM KCl, 1.8 mM CaCl2, 10 mM HEPES, 10 mM Glucose, pH 7.4) resulting in a compound concentration 3 times above the final test concentration and DMSO at 2.7% resulting in 0.9% final DMSO concentration in the assay.
At the assay day cells were washed 3× with assay buffer (as described above), 10 μL buffer remained in the wells after washing. 10 μL Ca kit loading buffer (AAT Bioquest; prepared from the kit containing the following components: Component A: Fluo-8 NW dissolved in 200 μL DMSO and 20 μl of this solution are mixed with 10 ml buffer prepared out of component B and C, Component B: 10× Pluronic® F127 Plus diluted 1:10 in component C, Component C: HHBS (Hanks with 20 mM Hepes) was added to the cells and the plates were incubated with lid for 60 minutes at room temperature. 20 μl assay buffer containing 60 μM glycine (20 μM final) and 3 μM glutamate (1 μM final) was added to column 1-23, column 24 got assay buffer without glycine/glutamate to serve as negative unstimulated control. Fluorescence (indicating the calcium influx as a result of the NR1/NR2B ion channel activation) was read on the FLIPRtetra device for 60 seconds to monitor the glutamate induced effects. After 2 minutes 20 μL of compound dilution prepared as described above or controls (row 1-22) in assay buffer were carefully added to the wells. […] The average of 2 measurements at 5 minutes and […] 10 seconds after compound addition is calculated and further used for IC50 calculations. Each assay microtiter compound dilution plate contained wells (in column 23 or 24) with DMSO controls instead of compound as controls for glycine/glutamate induced fluorescence (high controls) and wells with 1 μM of a reference NR2B NAM as low controls (Compound 22; reference: Layton, Mark E et al, ACS Chemical Neuroscience 2011, 2(7), 352-362).
The output file of the reader contains the well number and measured average fluorescence units. For data evaluation and calculation, the measurement of the low control was set as 0% control and the measurement of the high control was set as 100% control. The IC50 values were calculated using the standard 4 parameter logistic regression formula. Calculation: [y=(a−d)/(1+(x/c)^b)+d], a=low value, d=high value; x=conc M; c=IC50 M; b=slope.

[2] = target: T2, Nav1.6 (Homo sapiens, UniProt Q9UQD0); assay: Nav 1.6 inhibition, IonWorks Quattro electrophysiology; assay type: cell-based
T2 sequence (Q9UQD0 whole entry): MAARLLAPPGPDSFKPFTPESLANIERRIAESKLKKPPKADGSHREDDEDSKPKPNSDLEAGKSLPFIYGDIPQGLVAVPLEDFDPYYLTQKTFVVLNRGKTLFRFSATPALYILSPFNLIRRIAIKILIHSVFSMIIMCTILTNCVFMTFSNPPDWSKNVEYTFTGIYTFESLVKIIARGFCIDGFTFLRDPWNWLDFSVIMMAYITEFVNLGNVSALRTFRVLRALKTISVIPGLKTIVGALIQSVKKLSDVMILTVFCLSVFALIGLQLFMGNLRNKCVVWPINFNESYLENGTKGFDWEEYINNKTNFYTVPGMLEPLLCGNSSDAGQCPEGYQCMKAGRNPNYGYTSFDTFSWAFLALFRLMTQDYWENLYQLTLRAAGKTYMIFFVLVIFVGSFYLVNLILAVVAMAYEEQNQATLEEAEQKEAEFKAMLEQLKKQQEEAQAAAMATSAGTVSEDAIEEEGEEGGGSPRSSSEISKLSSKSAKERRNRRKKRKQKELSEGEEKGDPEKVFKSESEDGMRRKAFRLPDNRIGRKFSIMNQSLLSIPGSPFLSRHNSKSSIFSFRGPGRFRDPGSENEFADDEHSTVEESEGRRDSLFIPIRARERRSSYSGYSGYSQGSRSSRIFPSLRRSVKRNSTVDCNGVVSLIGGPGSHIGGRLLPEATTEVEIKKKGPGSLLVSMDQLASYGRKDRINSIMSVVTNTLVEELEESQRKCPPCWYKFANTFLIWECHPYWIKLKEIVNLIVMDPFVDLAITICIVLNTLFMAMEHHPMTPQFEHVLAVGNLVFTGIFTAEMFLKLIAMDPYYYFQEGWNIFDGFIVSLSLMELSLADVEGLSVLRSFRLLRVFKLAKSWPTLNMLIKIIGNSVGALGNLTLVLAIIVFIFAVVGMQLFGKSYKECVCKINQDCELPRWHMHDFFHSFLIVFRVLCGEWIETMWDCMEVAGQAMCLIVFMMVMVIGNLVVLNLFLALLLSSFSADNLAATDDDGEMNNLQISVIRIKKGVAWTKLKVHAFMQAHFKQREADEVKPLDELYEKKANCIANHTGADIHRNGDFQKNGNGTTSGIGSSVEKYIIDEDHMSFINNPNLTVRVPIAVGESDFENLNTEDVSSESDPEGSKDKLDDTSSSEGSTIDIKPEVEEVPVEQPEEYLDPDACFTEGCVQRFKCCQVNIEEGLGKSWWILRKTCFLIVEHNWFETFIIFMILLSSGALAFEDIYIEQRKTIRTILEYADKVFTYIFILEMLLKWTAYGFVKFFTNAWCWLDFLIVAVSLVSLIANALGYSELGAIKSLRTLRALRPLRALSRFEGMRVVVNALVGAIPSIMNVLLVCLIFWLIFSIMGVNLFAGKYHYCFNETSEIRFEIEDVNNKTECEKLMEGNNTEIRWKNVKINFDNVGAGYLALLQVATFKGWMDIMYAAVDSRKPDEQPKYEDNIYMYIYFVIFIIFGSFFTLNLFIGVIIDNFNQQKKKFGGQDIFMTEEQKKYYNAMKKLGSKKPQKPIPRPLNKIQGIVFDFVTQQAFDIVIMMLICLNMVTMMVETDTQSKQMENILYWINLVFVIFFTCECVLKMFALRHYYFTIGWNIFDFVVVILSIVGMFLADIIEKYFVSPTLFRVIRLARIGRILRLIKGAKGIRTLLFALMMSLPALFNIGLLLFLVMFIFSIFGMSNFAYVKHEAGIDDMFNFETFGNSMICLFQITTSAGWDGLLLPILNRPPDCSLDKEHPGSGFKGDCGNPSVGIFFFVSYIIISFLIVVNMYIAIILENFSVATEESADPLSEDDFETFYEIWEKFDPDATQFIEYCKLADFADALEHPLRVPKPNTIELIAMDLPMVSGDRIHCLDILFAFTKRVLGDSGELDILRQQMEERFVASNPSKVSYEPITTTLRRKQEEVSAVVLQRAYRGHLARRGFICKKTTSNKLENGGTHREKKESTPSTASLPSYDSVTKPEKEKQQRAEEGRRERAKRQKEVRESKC
Method: Determination of Nav 1.6.Inhibition
IonWorks Quattro electrophysiological platform
The compounds were prepared in DMSO at 300× the final assay concentrations of 1 and 5 μM.
The 300×DMSO stock solutions were transferred into assay plates where 2 μl per well of each 300× stock solution were placed. All assay plates were stored at −80° C. until the day of assay.
On the day of the assay, the appropriate assay plate was thawed at room temperature, centrifuged, and 198 μl of external recording solution was added and mixed thoroughly. This provided a 1:100 dilution. A further 1:3 dilution occurred upon addition to the cells in the IonWorks Quattro electrophysiological platform, giving a 1:300 dilution in total. On each assay plate, at least 8 wells were reserved for vehicle control (0.3% DMSO) and at least 8 wells for each positive control specific to the cell line tested. The positive controls were tested at a maximal blocking and an approximate IC50 concentration. As positive control Lidocaine at concentrations of 30 and 1000 μM was used.
The solutions for recording Nav1.6 currents were as follows:
Amphotericin B was used to obtain electrical access to the cell interior at a final concentration of 200 μg/ml in internal recording solution.
State-dependent inhibition: Sodium channels when held at depolarized potential or long test pulse, the channels open and inactivate and then stay inactivated until the membrane potential is stepped back to hyperpolarized potentials, when the inactivated channels recover from inactivation into closed state.
Cells were held at −120 mV. In order to completely inactivate the sodium channels (pulse 1), the cells were pulsed to +0 mV for 2500 ms and stepped back to −120 mV for 10 ms (to completely recover from inactivation, however channels that had drugs bound to them will not recover from inactivation) before stepping to +0 mV for 20 ms (pulse 2).
Both the positive and vehicle control data associated with each cell line assayed are shown below as an example. The mean is shown for each positive and negative control as solid symbol with the total number of individual well replicates given next to the solid symbol. In addition, the individual data of each well are shown on the graph as open symbols so that the variation about the mean value can be readily assessed.
Shown below are the assay controls for the Nav1.6 IonWorks Quattro assay.
Tables 3 and 4 show the normalized percentage inhibition of Nav1.6 channel. […] (see also the figure Assay Control Results above).

[3] = target: T2, Nav1.6; conditions: reported in WO2015/130905; cited from earlier work

O=C(C1CN(Cc2cccc(Oc3ccccc3)c2)CCO1)N1CCOCC1 (stereo not shown) [Example 106 of WO2015/130905, reference compound]
activity on the NR1-NR2B ion channel (in words) [1]: do not show any activity | significant inhibition of the Nav 1.6 channel (in words) ([2]; at 5 μM): not showing any significant inhibition | significant inhibition of the Nav 1.6 channel (in words) ([2]; at 1 and 5 μM): do not show any significant inhibition | Nav 1.6 blockage [3]: > 5 µM
